# Experimental data: patent publication US20230398123A1, “METHODS TO TREAT INFLAMMATORY BOWEL DISEASE” (SHANGHAI PHARMACEUTICALS HOLDING CO., LTD., priority 2021, published 2023)
# “Also recorded” adds a separate entry of the source. Like-named read-outs stand apart in the source and are kept apart here.
# Experiments:
# IL-6 = IL-6 release from human ulcerative colitis colon mucosal biopsies (SEB-stimulated, multiplex ELISA); assay type: cell-based; details: about 18 hours, 50 ng/mL SEB
# Bioavailability in rats = details: rat, in vivo, oral
# [1] = Bioavailability in monkeys; details: monkey, in vivo, oral
# [2] = tested on: DNBS-induced colitis in Wistar rats; assay: DNBS-induced colitis in Wistar rats; assay type: in vivo; details: day 1-7
# [3] = tested on: TNBS-induced colitis in C57BL/6 mice; assay: TNBS-induced colitis in C57BL/6 mice, macroscopic and microscopic colon observations; assay type: in vivo; details: for histology of colon sections (H&E): day 3 after TNBS instillation (FIG. 5B)
# Text: Colitis was induced in C57BL/6 mice by instillation of trinitrobenzene sulfonic acid (TNBS) in the colons according to conventional methods. See Antoniou, et al., Ann. Medicine and Surgery, vol. 11, 9-15 (2016).
# FIGS. 5A-B show histological observations of colon sections from C57BL/6 mice. All animals were sacrificed on day 3 after the TNBS instillation to induce colitis as described above, and tissues are visualized by H&E (hematoxylin and eosin) staining.
# The second panel in FIG. 5B is tissue from a colon instilled with TNBS and treated with 10 mg/kg SPH-X twice daily, administered intraperitoneally.
# TNF-α [4] = assay: Western blot of TNF-α protein in mucosal lysates, TNBS colitis mice; assay type: in vivo; details: 10 mg/kg twice daily for three days, listed as SPH-X
# Procedure: To assess the effect of SPH-X in this model at the molecular level, colitis was again induced in mice by TNBS instillation (three per treatment group), using ethanol as a control. Test animals were treated with either vehicle (PBS) or SPH-X (10 mg/kg i.p., twice daily) for three days following the TNBS injury and were then sacrificed. Colonic mucosa were isolated from each test animal and used to prepare mRNA. The mRNA was reverse transcribed to provide cDNAs.
# Finally, mucosal lysates from test animals treated as described for the cytokine analysis were prepared and analyzed by Western blot to see how SPH-X affects TNF-α protein levels in the colitis model.
# IL-17A = IL-17A release from human ulcerative colitis colon mucosal biopsies (multiplex ELISA); assay type: cell-based; details: some UC patients; 10-300 nM
# TNF-α [5] = assay: TNF-α release from human ulcerative colitis colon mucosal biopsies (multiplex ELISA); assay type: cell-based; details: some UC patients; 10-300 nM
# [6] = Tekturna (aliskiren) label; cited from earlier work
# [7] = tested on: TNBS-induced colitis in RenTgMK mice; details: TNBS instillation, aliskiren by intraperitoneal injection; cited from earlier work
# [8] = UC Donor C, Formula (I) malate salt 10-300 nM, Birb 796 1 μM
structure (smiles),measurement,setting,value
"Cc1ccc(-n2nc(C(C)(C)C)cc2NC(=O)Nc2ccc(OCCN3CCOCC3)c3ccccc23)cc1 [Birb 796, reference compound]",IL-6 production,IL-6; [8],reduction of IL-6
COC(=O)NCCCn1nc([C@@H](C)N(C(=O)C2CNCCO2)C2CC2)c2ccc(C)nc21 (stereo partly drawn) [Formula (I)],bioavailability,Bioavailability in rats,11.5 to 24.5%
same,bioavailability,[1],3.3 to 11.3%
COC(=O)NCCCn1nc([C@@H](C)N(C(=O)C2CNCCO2)C2CC2)c2ccc(C)nc21.O=C(O)C[C@H](O)C(=O)O (stereo partly drawn) [Formula I malate salt],colon length,[2]; 30 mg/kg q.d. p.o.,significantly increased colon length
same,histology of colon sections (H&E),"[3]; 5 mg/kg BID, listed as SPH-X",substantially prevents or treats any injury caused by TNBS instillation; also recorded: treats or prevents such damage
same,interior of colons dissected longitudinally (bleeding at the distal ends),[3]; 10 mg/kg intraperitoneally after TNBS instillation (FIG. 4B),do not show such damage
same,histology of colon sections (H&E),"[3]; 10 mg/kg twice daily intraperitoneally, listed as SPH-X",substantially protects the colon from injury caused by TNBS; also recorded: treats or prevents such damage
same,gross morphology of colons,"[3]; 20 mg/kg BID intraperitoneal, 7 days after TNBS instillation (FIG. 4A), listed as SPH-X",appear more normal; also recorded: substantially reverses damage caused by TNBS
same,TNF-α protein level (Western blot),TNF-α [4],no TNF-α protein was seen; also recorded: reduces or stops formation of TNF-α
same,IL-6 production,IL-6; [8],does not show reduction in IL-6
same,IL-6 production,"IL-6; UC Donors A and B, 10-300 nM",significant dose-related decreases
same,release of IL-17A,IL-17A,dose-related reductions
same,release of tumor necrosis factor alpha (TNF-α),TNF-α [5],dose-related reductions
C[C@@H]1CCN(C(=O)CC#N)C[C@@H]1N(C)c1ncnc2[nH]ccc12 [Tofacitinib],CW/BW ratio improved by,[2]; 30 mg/kg BID p.o.,9%
same,CW/CL ratio improved by,[2]; 30 mg/kg BID p.o.,37%
same,CW/CL/BW ratio improved by,[2]; 30 mg/kg BID p.o.,14%
COCCCOc1cc(C[C@@H](C[C@H](N)[C@@H](O)C[C@H](C(=O)NCC(C)(C)C(N)=O)C(C)C)C(C)C)ccc1OC [aliskiren],bioavailability,[6],2.5%
same,effect on induced colitis,[7],ameliorated this induced colitis
